The results in this text go back to patent publication US10294202B2, “Pyrrolidinones as herbicides” (FMC Corporation, priority 2013, dated 2019).

SMILES strings stand for the structures.

The test system of one test is kochia. The experiment in a line: Test D pre-/postemergence herbicide test. Type of test: in vivo, Kochia scoparia. The following applies: for Plant response rating: Kochia, scale 0 to 100; for Plant response rating, Kochia: scale 0 to 100 (0 no effect, 100 complete control). An excerpt:
(§1) Seeds of plant species selected from bluegrass (annual bluegrass, Poa annua), blackgrass (Alopecurus myosuroides), canarygrass (littleseed canarygrass, Phalaris minor), chickweed (common chickweed, Stellaria media), galium (catchweed bedstraw, Galium aparine), bromegrass, downy (downy bromegrass, Bromus tectorum), field poppy (Papaver rhoeas), field violet (Viola arvensis), foxtail, green (green foxtail, Setaria viridis), deadnettle (henbit deadnettle, Lamium amplexicaule), ryegrass, Italian (Italian ryegrass, Lolium multiflorum), kochia (Kochia scoparia), lambsquarters (Chenopodium album), oilseed rape (Brassica napus), pigweed (Amaranthus retroflexus), chamomile (scentless chamomile, Matricaria inodora), Russian thistle (Salsola kali), speedwell (bird's-eye speedwell, Veronica persica), barley, spring (spring barley, Hordeum vulgare), wheat, spring (spring wheat, Triticum aestivum), buckwheat, wild (wild buckwheat, Polygonum convolvulus), mustard, wild (wild mustard, Sinapis arvensis), oat, wild (wild oat, Avena fatua), radish, wild (wild radish, Raphanus raphanistrum), […]), barley, winter (winter barley, Hordeum vulgare), and wheat, winter (winter wheat, Triticum aestivum) were planted into a silt loam soil and treated preemergence with test chemicals formulated in a non-phytotoxic solvent mixture which included a surfactant. At the same time, these species were planted in pots containing Redi-Earth® planting medium (Scotts Company, 14111 Scottslawn Road, Marysville, Ohio 43041) comprising spaghnum peat moss, vermiculite, wetting agent and starter nutrients and treated with postemergence applications of the test chemicals formulated in the same manner. Plants ranged in height from 2 to 18 cm (1- to 4-leaf stage). Treated plants and controls were maintained in a controlled growth environment for 7 to 21 days after which time all species were compared to controls and visually evaluated. Plant response ratings, summarized in Table D, are based on a scale of 0 to 100 where 0 is no effect and 100 is complete control. A dash (-) response means no test result.

Another test deals with bromegrass, downy. The experiment in a line: Test D pre-/postemergence herbicide test. Type of test: in vivo, Bromus tectorum. Particulars: for Plant response rating: Bromegrass, Downy, scale 0 to 100; for Plant response rating, Bromegrass, Downy: scale 0 to 100 (0 no effect, 100 complete control).
Excerpt: as §1

The subject of the next test is cupgrass, woolly. The experiment in a line: Test C pre-/postemergence herbicide test. The format is in vivo, Eriochloa villosa. An excerpt: Seeds of plant species selected from blackgrass (Alopecurus myosuroides), ryegrass, Italian (Italian ryegrass, Lolium multiflorum), wheat (winter wheat, Triticum aestivum), galium (catchweed bedstraw, Galium aparine), corn (Zea mays), crabgrass, large (large crabgrass, Digitaria sanguinalis), foxtail, giant (giant foxtail, Setaria faberii), johnsongrass (Sorghum halepense), lambsquarters (Chenopodium album), morningglory (Ipomoea coccinea), nutsedge, yellow (yellow nutsedge, Cyperus esculentus), pigweed (Amaranthus retroflexus), ragweed (common ragweed, Ambrosia elatior), soybean (Glycine max), barnyardgrass (Echinochloa crus-galli), oilseed rape (Brassica napus), waterhemp (common waterhemp, Amaranthus rudis), kochia (Kochia scoparia), oat, wild (wild oat, Avena fatua), surinam grass (Brachiaria decumbens), foxtail, green (green foxtail, Setaria viridis), goosegrass (Eleusine indica), bromegrass, downy (downy bromegrass, Bromus tectorum), nightshade (eastern black nightshade, Solanum ptycanthum), cocklebur (common cocklebur, Xanthium strumarium), cupgrass, woolly (woolly cupgrass, Eriochloa villosa), bermudagrass (Cynodon dactylon), sunflower, (common oilseed sunflower, Helianthus annuus), Russian thistle (Salsola kali) and velvetleaf (Abutilon theophrasti) were planted into a blend of loam soil and sand and treated preemergence with test chemicals formulated in a non-phytotoxic solvent mixture which included a surfactant. At the same time, plants selected from these crop and weed species and also barley (winter barley, Hordeum vulgare), […]), chickweed (common chickweed, Stellaria media), deadnettle (henbit deadnettle, Lamium amplexicaule), and canarygrass (littleseed canarygrass, Phalaris minor) were planted in pots containing Redi-Earth® planting medium (Scotts Company, 14111 Scottslawn Road, Marysville, Ohio 43041) comprising spaghnum peat moss, vermiculite, wetting agent and starter nutrients and treated with postemergence applications of test chemicals formulated in the same manner. Plants ranged in height from 2 to 18 cm (1- to 4-leaf stage) for postemergence treatments. Treated plants and controls were maintained in a greenhouse for 13 to 15 days, after which time all species were compared to controls and visually evaluated. Plant response ratings, summarized in Table C, are based on a scale of 0 to 100 where 0 is no effect and 100 is complete control. A dash (-) response means no test result.

Setting [1] is: Preemergence, 62 g ai/ha, scale 0 to 100.
Setting [2] is: Preemergence, 125 g ai/ha, scale 0 to 100 (0 no effect, 100 complete control).
[3] abbreviates: Preemergence, 31 g ai/ha, scale 0 to 100 (0 no effect, 100 complete control).
Where [4] appears, read: Postemergence, 31 g ai/ha, scale 0 (no effect) to 100 (complete control).
The mark [5] stands for this setting: Postemergence, 62 g ai/ha, scale 0 to 100 (0 no effect, 100 complete control).
Where [6] appears, read: Postemergence, 125 g ai/ha, scale 0 to 100 (0 no effect, 100 complete control).

With `O=C1NCC(c2ccc(F)c(F)c2)C1C(=O)Nc1ccccc1C(F)(F)F` (racemic) [Compound 6], the Plant response rating in the test with kochia (Postemergence, 16 g ai/ha) is given as 0; in the test on kochia (Postemergence, 31 g ai/ha) it was 5; in the test on kochia (Postemergence, 62 g ai/ha), 5; with kochia (Postemergence, 125 g ai/ha), 5; in the test with kochia (Postemergence, 250 g ai/ha), 10; in the test on kochia (Preemergence, 125 g ai/ha) it was 40. The Plant response rating turned out to be 50 with kochia (Preemergence, 250 g ai/ha); 0 in the test with bromegrass, downy (Postemergence, 16 g ai/ha); 0 with bromegrass, downy (Postemergence, 31 g ai/ha); 0 with bromegrass, downy (Postemergence, 62 g ai/ha); 0 in the test with bromegrass, downy (Postemergence, 125 g ai/ha); 0 in the test with bromegrass, downy (Postemergence, 250 g ai/ha). Moreover, the Plant response rating turned out to be 0 in the test with bromegrass, downy (Preemergence, 125 g ai/ha) and 10 in the test on bromegrass, downy (Preemergence, 250 g ai/ha). Further, the “Plant response rating, Kochia” value with kochia (Preemergence, 62 g ai/ha) is 30; in the test with kochia (Preemergence, 16 g ai/ha), 0; in the test with kochia (Preemergence, 31 g ai/ha), 0. The “Plant response rating, Bromegrass, Downy” value worked out at 0 with bromegrass, downy (Preemergence, 62 g ai/ha); 0 with bromegrass, downy (Preemergence, 16 g ai/ha); 0 in the test on bromegrass, downy (Preemergence, 31 g ai/ha).

For `O=C1NCC(c2ccc(F)c(C(F)(F)F)c2)C1C(=O)Nc1cccc(F)c1F` (racemic) [Compound 77], the “Plant response rating, Kochia” value in the test with kochia (Preemergence, 62 g ai/ha) turned out to be 75; in the test with kochia (Preemergence, 31 g ai/ha), 35. The Plant response rating is given as 80 in the test on kochia (Preemergence, 125 g ai/ha); 85 in the test on kochia (Preemergence, 250 g ai/ha); 10 in the test on bromegrass, downy (Preemergence, 125 g ai/ha); 25 in the test with bromegrass, downy (Preemergence, 250 g ai/ha). Also, the “Plant response rating, Bromegrass, Downy” value in the test with bromegrass, downy (Preemergence, 62 g ai/ha) was 0; with bromegrass, downy (Preemergence, 31 g ai/ha) it was 0.

For `O=C1NCCC1C(=O)N(c1ccc(F)c(F)c1)c1ccccc1F` (centres unmarked) [Compound 5, N-(3,4-difluorophenyl)-N-(2-fluorophenyl)-2-oxo-3-pyrrolidinecarboxamide], the “Plant response rating, Cupgrass, Woolly” value came out at 85 in the test on cupgrass, woolly (setting [1]); 90 in the test with cupgrass, woolly (setting [2]); 95 with cupgrass, woolly (Preemergence, 250 g ai/ha, scale 0 to 100 (0 no effect, 100 complete control)). Further, the “Cupgrass, Woolly plant response rating” value with cupgrass, woolly (setting [3]) was 80.

For the compound `O=C1NCC(c2cc(F)c(F)c(F)c2)C1C(=O)Nc1cccc(F)c1F` (centres unmarked) [Compound 48], the “Plant response rating, Cupgrass, Woolly” value with cupgrass, woolly (Postemergence, 16 g ai/ha, scale 0 to 100 (0 no effect, 100 complete control)) was determined as 0; with cupgrass, woolly (setting [4]) it was 0; in the test with cupgrass, woolly (setting [5]), 5; in the test with cupgrass, woolly (setting [6]) it was 5; with cupgrass, woolly (setting [1]) it was 70; in the test on cupgrass, woolly (setting [2]), 85. Moreover, the “Plant response rating, Cupgrass, Woolly” value with cupgrass, woolly (Preemergence, 16 g ai/ha, scale 0 to 100) is 25. Also, the “Cupgrass, Woolly plant response rating” value with cupgrass, woolly (setting [3]) amounted to 70.

With `O=C1NCC(c2cc(F)c(F)cc2F)C1C(=O)Nc1cccc(F)c1F` (centres unmarked) [Compound 50], the Plant response rating turned out to be 10 in the test with kochia (Postemergence, 16 g ai/ha); 15 with kochia (Postemergence, 31 g ai/ha); 15 in the test on kochia (Postemergence, 62 g ai/ha); 0 in the test on kochia (Postemergence, 125 g ai/ha); 0 in the test with kochia (Preemergence, 125 g ai/ha); 0 in the test with bromegrass, downy (Postemergence, 16 g ai/ha). In addition, the Plant response rating in the test with bromegrass, downy (Postemergence, 31 g ai/ha) came to 0; in the test on bromegrass, downy (Postemergence, 62 g ai/ha), 0; in the test with bromegrass, downy (Postemergence, 125 g ai/ha), 0; with bromegrass, downy (Preemergence, 125 g ai/ha) it was 0. Further, the “Plant response rating, Kochia” value in the test with kochia (Preemergence, 62 g ai/ha) is reported as 10; with kochia (Preemergence, 16 g ai/ha) it was 5; in the test with kochia (Preemergence, 31 g ai/ha) it was 10. In addition, the “Plant response rating, Bromegrass, Downy” value was 0 in the test on bromegrass, downy (Preemergence, 62 g ai/ha); 0 in the test with bromegrass, downy (Preemergence, 16 g ai/ha); 0 with bromegrass, downy (Preemergence, 31 g ai/ha). Besides, the “Plant response rating, Cupgrass, Woolly” value with cupgrass, woolly (setting [4]) was 0; in the test on cupgrass, woolly (setting [5]), 0; in the test with cupgrass, woolly (setting [6]), 0; in the test on cupgrass, woolly (Postemergence, 250 g ai/ha, scale 0 to 100 (0 no effect, 100 complete control)), 10.

For the compound `O=C1NCC(c2ccc(F)c(Cl)c2)C1C(=O)Nc1ccccc1F` (centres unmarked) [Compound 60], the “Plant response rating, Cupgrass, Woolly” value with cupgrass, woolly (setting [4]) is 0; with cupgrass, woolly (setting [5]), 0; in the test with cupgrass, woolly (setting [6]), 5; with cupgrass, woolly (setting [1]) it was 75; with cupgrass, woolly (setting [2]), 75. For the same compound, in the test with cupgrass, woolly (setting [3]), the “Cupgrass, Woolly plant response rating” value stood at 55.

Consider `O=C1NCC(c2cccc(OC(F)(F)F)c2)C1C(=O)Nc1ccccc1F` (centres unmarked) [Compound 69], for which the “Cupgrass, Woolly plant response rating” value with cupgrass, woolly (Preemergence, 31 g ai/ha, scale 0 to 100, 0 is no effect and 100 is complete control) is 75. For the same compound, the “Plant response rating, Cupgrass, Woolly” value in the test with cupgrass, woolly (setting [1]) came to 85; in the test on cupgrass, woolly (setting [2]) it was 85. The “Plant response rating (scale of 0 to 100), Cupgrass, Woolly” value with cupgrass, woolly (Preemergence, 250 g ai/ha) amounted to 90.

Consider `O=C1NCC(c2ccc(C(F)(F)F)cc2)C1C(=O)Nc1ccccc1F` (centres unmarked) [Compound 231], for which the Plant response rating in the test with kochia (Postemergence, 31 g ai/ha) was 55; with kochia (Postemergence, 62 g ai/ha), 60; in the test on kochia (Postemergence, 125 g ai/ha) it was 60; with kochia (Postemergence, 250 g ai/ha), 65; with kochia (Preemergence, 250 g ai/ha) it was 85; with bromegrass, downy (Postemergence, 31 g ai/ha) it was 15. Also, the Plant response rating is recorded as 20 in the test on bromegrass, downy (Postemergence, 62 g ai/ha); 25 with bromegrass, downy (Postemergence, 125 g ai/ha); 25 in the test on bromegrass, downy (Postemergence, 250 g ai/ha); 15 in the test with bromegrass, downy (Preemergence, 250 g ai/ha). Besides, the “Plant response rating, Kochia” value in the test with kochia (Preemergence, 62 g ai/ha) is given as 20; in the test with kochia (Preemergence, 125 g ai/ha), 80; in the test on kochia (Preemergence, 31 g ai/ha) it was 0. Besides, the “Plant response rating, Bromegrass, Downy” value in the test with bromegrass, downy (Preemergence, 62 g ai/ha) worked out at 0; in the test with bromegrass, downy (Preemergence, 125 g ai/ha), 0; in the test with bromegrass, downy (Preemergence, 31 g ai/ha), 0.
